From PubChem BioAssay AID248 (DTP/NCI, 2004)
Where “and” joins values, the source holds several entries; their conditions need not be identical. Equal entries are not always repeated. Toxic doses and inconclusive results are not listed. Cut-off read from the data, not from the text of the source: active = T/C of 150% or more; inactive = T/C below 125%.

Test system: L1210 leukemia ip in BDF1 mice, survival T/C
Assay: NCI In Vivo Anticancer Drug Screen. Data for tumor model L1210 Leukemia (intraperitoneal) in B6D2F1 (BDF1) mice
Conditions: endpoint: mean survival time, higher = longer survival
In short: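 In this screen, tumor-bearing mice given compound are compared to those given vehicle, and their survival values are reported as a treated-to-control quotient.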

[1] = dose: 10.0 mg/kg/injection, schedule: Q04DX003 (ip), vehicle: saline
[2] = dose: 12.5 mg/kg/injection, schedule: Q04DX003 (ip), vehicle: saline with Tween-80
[3] = dose: 50.0 mg/kg/injection, schedule: Q01DX009 (ip), vehicle: saline with Tween-80
[4] = dose: 100.0 mg/kg/injection, schedule: Q01DX009 (ip), vehicle: saline with Tween-80
[5] = dose: 200.0 mg/kg/injection, schedule: Q01DX009 (ip), vehicle: saline with Tween-80
[6] = dose: 100.0 mg/kg/injection, schedule: Q01DX001 (ip), vehicle: carboxymethylcellulose (CMC)
[7] = dose: 200.0 mg/kg/injection, schedule: Q01DX001 (ip), vehicle: carboxymethylcellulose (CMC)
[8] = dose: 400.0 mg/kg/injection, schedule: Q01DX001 (ip), vehicle: carboxymethylcellulose (CMC)
[9] = dose: 100.0 mg/kg/injection, schedule: Q04DX003 (ip), vehicle: saline
[10] = dose: 200.0 mg/kg/injection, schedule: Q04DX003 (ip), vehicle: saline
[11] = dose: 400.0 mg/kg/injection, schedule: Q04DX003 (ip), vehicle: saline
[12] = dose: 100.0 mg/kg/injection, schedule: Q01DX009 (ip), vehicle: Klucel (hydroxypropylcellulose) (HPC)
[13] = dose: 200.0 mg/kg/injection, schedule: Q01DX009 (ip), vehicle: Klucel (hydroxypropylcellulose) (HPC)

Measured: T/C

OCCCC(O)CO (stereo unspecified)
inactive: dose: 222.0 mg/kg/injection, schedule: Q01DX Z (ip), vehicle: saline 98 % of control | dose: 333.0 mg/kg/injection, schedule: Q01DX Z (ip), vehicle: saline 111 % of control | dose: 500.0 mg/kg/injection, schedule: Q01DX Z (ip), vehicle: saline 102 % of control

COc1ccc2[nH]c3c(C)c4cc[n+](C)cc4c(C)c3c2c1
inactive: dose: 6.25 mg/kg/injection, schedule: Q04DX003 (ip), vehicle: saline sonified 105 % of control | [1] 115 % of control | dose: 12.5 mg/kg/injection, schedule: Q04DX003 (ip), vehicle: saline sonified 122 % of control | dose: 20.0 mg/kg/injection, schedule: Q04DX003 (ip), vehicle: saline 88 % of control

CCOC(=O)c1ccc(N(CC(S)CNc2cc(C)nc(N)n2)S(=O)(=O)c2ccc(C)cc2)cc1 (stereo unspecified)
inactive: dose: 25.0 mg/kg/injection, schedule: Q01DX001 (ip), vehicle: saline 95 % of control | dose: 50.0 mg/kg/injection, schedule: Q01DX001 (ip), vehicle: saline 90 % of control

CN(CCN(C)S(=O)(=O)c1ccccc1)S(=O)(=O)c1ccccc1
inactive: dose: 75.0 mg/kg/injection, schedule: Q01DX009 (ip), vehicle: Klucel (hydroxypropylcellulose) (HPC) 94 % of control | dose: 150.0 mg/kg/injection, schedule: Q01DX009 (ip), vehicle: Klucel (hydroxypropylcellulose) (HPC) 107 % of control | dose: 300.0 mg/kg/injection, schedule: Q01DX009 (ip), vehicle: Klucel (hydroxypropylcellulose) (HPC) 95 % of control

COc1cc(Cc2c3cc4c(cc3cc[n+]2C)OCO4)c(Oc2cc(Cc3c4cc5c(cc4cc[n+]3C)OCO5)ccc2OC)cc1OC
inactive: dose: 3.12 mg/kg/injection, schedule: Q04DX003 (ip), vehicle: saline with Tween-80 97 % of control | dose: 6.25 mg/kg/injection, schedule: Q04DX003 (ip), vehicle: saline with Tween-80 95 % of control | [2] 95 % of control

c1ccc([P+](c2ccccc2)(c2ccccc2)c2ccccc2)cc1
inactive: dose: 2.5 mg/kg/injection, schedule: Q01DX009 (ip), vehicle: saline 110 % of control | dose: 2.5 mg/kg/injection, schedule: Q04DX003 (ip), vehicle: saline 103 % of control | dose: 5.0 mg/kg/injection, schedule: Q01DX001 (ip), vehicle: saline 110 % of control | dose: 5.0 mg/kg/injection, schedule: Q01DX009 (ip), vehicle: saline 114 % of control | dose: 5.0 mg/kg/injection, schedule: Q04DX003 (ip), vehicle: saline 106 % of control | dose: 10.0 mg/kg/injection, schedule: Q01DX001 (ip), vehicle: saline 94 % of control | [1] 109 % of control

COc1cc(/C=N/NC(=O)CCCCCCCCC(=O)N/N=C/c2ccc(O)c(OC)c2)ccc1O
inactive: [3] 95 % of control and 97 % of control | dose: 100.0 mg/kg/injection, schedule: Q01DX001 (ip), vehicle: saline with Tween-80 92 % of control | [4] 93 % of control and 91 % of control | dose: 100.0 mg/kg/injection, schedule: Q04DX002 (ip), vehicle: saline with Tween-80 101 % of control | dose: 100.0 mg/kg/injection, schedule: Q04DX003 (ip), vehicle: saline with Tween-80 87 % of control | dose: 200.0 mg/kg/injection, schedule: Q01DX001 (ip), vehicle: saline with Tween-80 95 % of control | [5] 94 % of control and 100 % of control | dose: 200.0 mg/kg/injection, schedule: Q04DX002 (ip), vehicle: saline with Tween-80 93 % of control and 103 % of control | dose: 200.0 mg/kg/injection, schedule: Q04DX003 (ip), vehicle: saline with Tween-80 97 % of control | dose: 400.0 mg/kg/injection, schedule: Q01DX001 (ip), vehicle: saline with Tween-80 92 % of control | dose: 400.0 mg/kg/injection, schedule: Q04DX002 (ip), vehicle: saline with Tween-80 90 % of control | dose: 400.0 mg/kg/injection, schedule: Q04DX003 (ip), vehicle: saline with Tween-80 101 % of control

NC(=O)N=Nc1ccccc1
inactive: dose: 100.0 mg/kg/injection, schedule: Q01DX001 (ip), vehicle: other 105 % of control | dose: 200.0 mg/kg/injection, schedule: Q01DX001 (ip), vehicle: other 91 % of control | dose: 400.0 mg/kg/injection, schedule: Q01DX001 (ip), vehicle: other 98 % of control

Cc1ccc(C(c2ccccc2)c2ccccc2)cc1C
inactive: dose: 100.0 mg/kg/injection, schedule: Q01DX001 (ip), vehicle: saline 97 % of control | dose: 400.0 mg/kg/injection, schedule: Q01DX001 (ip), vehicle: saline 88 % of control

Cc1ccc(S(=O)(=O)N=S(Cc2ccccc2)Cc2ccccc2)cc1
inactive: dose: 50.0 mg/kg/injection, schedule: Q01DX001 (ip), vehicle: saline sonified 103 % of control | dose: 100.0 mg/kg/injection, schedule: Q01DX001 (ip), vehicle: saline sonified 108 % of control | dose: 200.0 mg/kg/injection, schedule: Q01DX001 (ip), vehicle: saline sonified 95 % of control

O=C1CCSC1
inactive: [3] 87 % of control | [4] 98 % of control | [5] 98 % of control

Nc1c(I)cc2c(c1I)Cc1cc([N+](=O)[O-])ccc1-2
inactive: [6] 106 % of control | [7] 103 % of control | [8] 103 % of control

CCN(CC)CCOC(=O)c1ccc(Cl)cc1
inactive: dose: 50.0 mg/kg/injection, schedule: Q01DX009 (ip), vehicle: saline 100 % of control | dose: 100.0 mg/kg/injection, schedule: Q01DX009 (ip), vehicle: saline 96 % of control | dose: 200.0 mg/kg/injection, schedule: Q01DX009 (ip), vehicle: saline 96 % of control

COc1ccc(C(=O)CCN2CCC(O)(c3ccccc3)CC2)cc1
inactive: [2] 100 % of control | dose: 25.0 mg/kg/injection, schedule: Q04DX003 (ip), vehicle: saline with Tween-80 92 % of control | dose: 50.0 mg/kg/injection, schedule: Q04DX003 (ip), vehicle: saline with Tween-80 96 % of control

Nc1csc(N)n1
inactive: dose: 75.0 mg/kg/injection, schedule: Q04DX003 (ip), vehicle: saline 107 % of control | [9] 97 % of control | dose: 150.0 mg/kg/injection, schedule: Q04DX003 (ip), vehicle: saline 105 % of control | [10] 96 % of control | dose: 300.0 mg/kg/injection, schedule: Q04DX003 (ip), vehicle: saline 94 % of control | [11] 103 % of control

CC(=O)Nc1nnc(Sc2ccc([N+](=O)[O-])cc2[N+](=O)[O-])s1
inactive: [12] 95 % of control | [13] 95 % of control | dose: 400.0 mg/kg/injection, schedule: Q01DX009 (ip), vehicle: Klucel (hydroxypropylcellulose) (HPC) 100 % of control

CC(=O)CSc1nc2ccccc2s1
inactive: dose: 50.0 mg/kg/injection, schedule: Q01DX009 (ip), vehicle: Klucel (hydroxypropylcellulose) (HPC) 95 % of control | [12] 104 % of control | [13] 111 % of control

CCC(Cl)COP(=O)(OCC(Cl)CC)C(CC)CCl (stereo unspecified)
inactive: [6] 93 % of control | dose: 100.0 mg/kg/injection, schedule: Q01DX009 (ip), vehicle: carboxymethylcellulose (CMC) 98 % of control and 91 % of control | dose: 100.0 mg/kg/injection, schedule: Q04DX002 (ip), vehicle: carboxymethylcellulose (CMC) 94 % of control and 95 % of control | dose: 100.0 mg/kg/injection, schedule: Q04DX003 (ip), vehicle: carboxymethylcellulose (CMC) 101 % of control | [7] 96 % of control | dose: 200.0 mg/kg/injection, schedule: Q01DX009 (ip), vehicle: carboxymethylcellulose (CMC) 94 % of control and 103 % of control | dose: 200.0 mg/kg/injection, schedule: Q04DX002 (ip), vehicle: carboxymethylcellulose (CMC) 95 % of control and 102 % of control | dose: 200.0 mg/kg/injection, schedule: Q04DX003 (ip), vehicle: carboxymethylcellulose (CMC) 96 % of control | [8] 96 % of control | dose: 400.0 mg/kg/injection, schedule: Q01DX009 (ip), vehicle: carboxymethylcellulose (CMC) 105 % of control and 106 % of control | dose: 400.0 mg/kg/injection, schedule: Q04DX002 (ip), vehicle: carboxymethylcellulose (CMC) 94 % of control and 95 % of control | dose: 400.0 mg/kg/injection, schedule: Q04DX003 (ip), vehicle: carboxymethylcellulose (CMC) 98 % of control

CN(C)CCSc1ncnc2nc[nH]c12
inactive: [9] 94 % of control | [10] 99 % of control | [11] 89 % of control
